# What was measured:
# [1] = test system: C. albicans; test: Rat venous catheter biofilm model; format: in vivo; conditions: 24 h
# Procedure: The wild-type 12-mer (SEQ ID NO: 4) is protective in a rat venous catheter model of C. albicans infection. C. albicans can form prodigious biofilms on implanted medical devices and the presence of an intravenous catheter is, by itself, a significant risk factor for developing disseminated candidiasis. These infections are notoriously difficult to treat and are associated with the drug resistance characteristic of biofilms. Thus, full-length EntV was tested in a model in which an intravenous catheter is implanted into the jugular vein of rats and inoculated with C. albicans with or without the peptide. After 24 hours, the catheter is removed and sectioned to assess fungal burden by plating for CFUs and by scanning electron microscopy (SEM). […] As the minimal peptide length was determined, this model utilized along with the 12-mer peptide, this time at a lower concentration to probe the extent of protection.
# Rat catheter model: The protocol for the rat catheter biofilm was conducted as previously described (Andes, et al., 2004). Briefly, indwelling central venous catheters in rats were inoculated with 1×10^6 cells/mL C. albicans with or without 100 nM EntV or 20 nM 12-mer peptide (group size was 3). To quantitate fungal burden after 24 h, the catheter was removed, and 1 cm of the tip placed in a one milliliter of sterile 0.9% NaCl followed by vortexing. A 1:10 serial dilution of this wash fluid was plated on SDA and colonies counted after 24 h of growth at 35° C. For scanning electron microscopy (SEM), catheters were fixed overnight in 4% formaldehyde and 1% glutaraldehyde in PBS. The catheters were then washed with PBS and treated with 1% osmium tetroxide in PBS for 30 min. Serial ethanol washes and critical point drying were used to dry the segments before they were mounted, and palladium-gold coated. All images were taken using a SEM LEO 1530, with Adobe Photoshop CC (20.0.4 release) used for image compilation.
# [2] = test system: C. albicans; test: C. albicans adhesion assay (polystyrene plates, crystal violet); format: cell-based; conditions: vs. DMSO control
# Procedure: This, like many manifestations of Candida infections, requires adhesion of the fungal cell to surfaces, both biotic and abiotic, whereupon biofilm structures are commonly formed. A model in which binding to plastic surfaces is a measure of the initial stage of biofilm differentiation. In this assay, cells are incubated in polystyrene 96 well plates with the peptides in PBS for one hour and then overlaid with artificial saliva media for 90 minutes before washing and quantitation of adhesion using crystal violet.
# C. albicans adhesion assays. The C. albicans adhesion assays were performed using similar techniques as described previously (Gulati et al., 2018). C. albicans strains were grown in YPD broth for 18 h at 30° C. with agitation and then sub-cultured for 4 h in the same conditions. Cells were then collected by centrifugation, washed twice in PBS, and adjusted to a concentration of 1×10^7 cells/ml (measured with Countess II, Life Technologies) in PBS treated with the indicated concentrations of test compounds. The cell suspension was incubated for 1 h at 30° C. with agitation. […]
# The adhered cell layer was then stained for 20 minutes with 40 μl of 0.08% crystal violet solution (diluted, Sigma). […] The optical density at 595 nm (OD595) was measured using a Synergy H1 plate reader (BioTek) with Gen5 version 3.08 software (BioTek).
# [3] = test system: C. albicans; test: Intravenous (disseminated candidiasis) infection model, survival; format: in vivo, mouse; conditions: C. albicans pre-incubated with 100 nM for two hours prior to IV injection
# Excerpt: The wild-type 12-mer is protective in a systemic mouse model of C. albicans infection. Systemic bloodstream infections by C. albicans are the most life-threatening to patients. Mortality rates from disseminated candidiasis exceed 40% and new treatments are in dire need. Since EntV impairs hyphal morphogenesis and biofilm formation rather than killing C. albicans (Graham et al., 2017), it was unclear if EntV and EntV derivatives would be protective in a systemic infection model. To increase the chances of observing an effect, C. albicans were pre-incubated with 100 nM of EntV or the 12-mer for two hours prior to intravenous (IV) injection of 1×10^5 CFU. […] The median survival of animals injected with C. albicans alone was 7.5 days and all animals had expired by 11 days.
# Intravenous infection model. The disseminated candidiasis model was performed as described (Miramon and Lorenz, 2016; Williams and Lorenz, 2020). C. albicans SC5314 was grown overnight in YPD at 30° C., then diluted to a very low concentration and grown in a second overnight. The late-log phase culture was collected by centrifugation, washed in PBS, and diluted to 5×10^6 cells/ml in PBS containing vehicle (0.01% DMSO) or 100 nM EntV or the 12-mer peptide and incubated for 2 hours at room temperature. […] Animals were monitored at least twice daily for 21 days for signs of moribundity.
# [4] = test system: C. albicans; test: Growth of C. albicans in shaking cultures; format: cell-based
# Procedure: These shorter peptides are no longer bacteriocins, having separated the antifungal and antibacterial activities. Furthermore, despite its robust protection against infection, EntV is not toxic to C. albicans. Growth of C. albicans was unaffected when EntV was added to shaking cultures in concentrations as high as 30 μM
molecule,measurement,setting,value
VAGQLALWAVQC [12aa],Catheter surface biofilm by SEM,[1]; 20 nM,largely clear of fungal biofilm
same,Reduction of catheter fungal burden,[1]; 20 nM,1.5 logs
same,Adhesion of C. albicans to polystyrene,[2],as effective in protecting against C. albicans infection in the worm model and inhibiting surface adhesion as full-length EntV
same,Animals alive at end of experiment (day 22),[3],about half the animals were still alive
"EntV: 68 amino acid active C-terminal form of the E. faecalis bacteriocin EntV (SEQ ID NO: 14) (protein, listed as Enterococcus faecalis) LGSCVANKIKDEFFAMISISAIVKAAQKKAWKELAVTVLRFAKANGLKTNAIIVAGQLALWAVQCGLS",Catheter fungal burden (CFUs),"[1]; 100 nM, detection limit 100 CFU",below the limit of detection
same,Adhesion of C. albicans to polystyrene,[2],significantly reduced adhesion to polystyrene
same,Highest concentration at which growth of C. albicans was unaffected,[4],≥ 30 µM
same,Animals alive at end of experiment (day 22),[3],about half the animals were still alive

# Reference: patent US20250250308A1, “METHODS AND COMPOSITIONS WITH ANTIFUNGAL ACTIVITY” (priority 2022, published 2025)
